Results reported in ChEMBL document CHEMBL3872247, “Discovery of dual positive allosteric modulators (PAMs) of the metabotropic glutamate 2 receptor and CysLT1 antagonists for treating migraine headache” (Bioorg Med Chem Lett, 2017).

How the values were obtained:
[1] = target: T1, Cysteinyl leukotriene receptor 1 (Homo sapiens, UniProt Q9Y271); experiment: Antagonist activity at human CysLT1 receptor expressed in Syrian hamster AV12-664 cells assessed as decrease in LTD4-induced intracellular calcium level pretreated followed by LTD4 addition by fluo-3 dye based FLIPR assay; assay type: functional, cell-based
T1 sequence (Q9Y271 whole entry): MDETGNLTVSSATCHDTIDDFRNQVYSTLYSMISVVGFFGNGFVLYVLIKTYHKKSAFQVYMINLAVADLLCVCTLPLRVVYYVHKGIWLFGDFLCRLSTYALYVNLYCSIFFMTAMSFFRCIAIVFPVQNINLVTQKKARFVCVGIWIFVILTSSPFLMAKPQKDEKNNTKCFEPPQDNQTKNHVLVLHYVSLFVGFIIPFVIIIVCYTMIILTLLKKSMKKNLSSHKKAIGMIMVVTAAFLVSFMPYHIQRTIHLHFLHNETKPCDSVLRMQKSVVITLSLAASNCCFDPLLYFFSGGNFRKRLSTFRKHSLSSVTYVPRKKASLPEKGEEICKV

[2] = target: T2, Metabotropic glutamate receptor 2 (Homo sapiens, UniProt Q14416); experiment: Positive allosteric modulation of recombinant human mGlu2 receptor expressed in hamster AV12 cells expressing EAAT1 assessed as potentiation of glutamate-induced intracellular calcium level measured after 24 to 48 hrs by FLIPR assay; assay type: functional, cell-based
Target sequence in this assay (Q14416 whole entry): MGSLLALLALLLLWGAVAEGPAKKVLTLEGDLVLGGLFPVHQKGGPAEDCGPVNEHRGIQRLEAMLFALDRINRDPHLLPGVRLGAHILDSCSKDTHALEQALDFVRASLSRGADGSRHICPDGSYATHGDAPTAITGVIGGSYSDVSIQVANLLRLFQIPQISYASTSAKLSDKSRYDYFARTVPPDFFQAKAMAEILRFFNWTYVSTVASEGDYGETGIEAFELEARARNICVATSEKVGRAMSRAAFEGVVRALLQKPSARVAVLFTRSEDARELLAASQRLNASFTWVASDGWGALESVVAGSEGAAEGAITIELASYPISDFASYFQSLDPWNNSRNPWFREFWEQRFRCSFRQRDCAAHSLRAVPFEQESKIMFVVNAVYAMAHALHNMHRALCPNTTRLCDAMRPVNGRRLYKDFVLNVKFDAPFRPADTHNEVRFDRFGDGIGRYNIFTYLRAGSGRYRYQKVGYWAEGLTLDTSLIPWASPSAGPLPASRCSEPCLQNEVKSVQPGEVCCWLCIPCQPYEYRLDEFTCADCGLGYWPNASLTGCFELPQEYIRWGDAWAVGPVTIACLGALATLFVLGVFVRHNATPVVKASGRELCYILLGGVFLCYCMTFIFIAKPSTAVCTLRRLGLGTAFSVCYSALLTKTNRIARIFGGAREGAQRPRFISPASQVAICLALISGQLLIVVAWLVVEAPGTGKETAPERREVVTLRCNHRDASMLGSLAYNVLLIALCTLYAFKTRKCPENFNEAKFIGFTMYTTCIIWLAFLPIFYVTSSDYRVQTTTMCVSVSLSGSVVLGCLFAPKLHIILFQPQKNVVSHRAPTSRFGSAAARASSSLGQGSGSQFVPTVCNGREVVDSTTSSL

[3] = target: T2, Metabotropic glutamate receptor 2; experiment: Positive allosteric modulation of recombinant human mGlu2 receptor expressed in hamster AV12 cells expressing EAAT1 assessed as potentiation of glutamate-induced intracellular calcium level measured after 24 to 48 hrs by FLIPR assay relative to glutamate; assay type: functional, cell-based
Target sequence in this assay (Q14416 19-872 limits assumed): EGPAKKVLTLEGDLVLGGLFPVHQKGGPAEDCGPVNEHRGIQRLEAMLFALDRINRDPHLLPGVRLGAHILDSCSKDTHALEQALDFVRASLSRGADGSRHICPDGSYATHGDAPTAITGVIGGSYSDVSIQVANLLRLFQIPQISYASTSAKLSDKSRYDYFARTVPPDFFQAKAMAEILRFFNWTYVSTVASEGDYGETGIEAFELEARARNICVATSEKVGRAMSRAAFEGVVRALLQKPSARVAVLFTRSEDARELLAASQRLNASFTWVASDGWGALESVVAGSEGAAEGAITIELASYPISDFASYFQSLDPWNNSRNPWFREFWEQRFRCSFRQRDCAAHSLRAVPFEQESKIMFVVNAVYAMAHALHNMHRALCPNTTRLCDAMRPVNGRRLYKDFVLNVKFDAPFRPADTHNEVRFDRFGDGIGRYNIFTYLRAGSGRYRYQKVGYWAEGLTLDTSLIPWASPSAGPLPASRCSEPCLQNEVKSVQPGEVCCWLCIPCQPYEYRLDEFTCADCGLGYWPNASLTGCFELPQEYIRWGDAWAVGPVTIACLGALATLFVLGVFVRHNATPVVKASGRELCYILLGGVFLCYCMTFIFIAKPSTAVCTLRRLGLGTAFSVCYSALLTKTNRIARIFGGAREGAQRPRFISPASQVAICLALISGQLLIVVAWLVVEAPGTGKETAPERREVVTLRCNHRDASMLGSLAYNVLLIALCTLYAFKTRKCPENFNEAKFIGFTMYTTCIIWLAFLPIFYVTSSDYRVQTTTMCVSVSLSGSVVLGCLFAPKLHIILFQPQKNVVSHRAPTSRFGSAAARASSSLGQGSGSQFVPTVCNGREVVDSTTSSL

[4] = Ratio of Cmax in rat to EC50 for human mGlu2 receptor expressed in hamster AV12 cells expressing EAAT1
[5] = Cmax in rat at 1 mg/kg, po; assay type: ADME, organism-based; parameters: dose 1 mg/kg, route oral; settings: in vivo
Rattus norvegicus = experiment: Decrease in plasma protein extravasation in fasted Harlan Sprague-Dawley rat model of migraine compound administered via oral gavage 1 hr prior to electrical stimulation of trigeminal ganglion measured after 15 mins by FITC-BSA based fluorescence assay; assay type: functional
[6] = Ratio of Cmax in rat to EC50 for human CysLT1 expressed in Syrian hamster AV12-664 cells
[7] = Tmax in rat at 1 mg/kg, po; assay type: ADME, organism-based; settings: in vivo
[8] = Oral bioavailability in rat at 1 mg/kg; assay type: ADME, organism-based; settings: in vivo

Structure (SMILES)	IC50 [1] [nM]	EC50 [2] [nM]	Emax [3] [%]	Cmax [5] [ng/mL]	Tmax [7] [min]	bioavailability [8] [%]	Ratio [4]	Activity (Rattus norvegicus)	ID100 (Rattus norvegicus) [µg/kg]	Ratio [6]
CC(=O)c1ccc(OCc2ccc(Oc3cccc(-c4nn[nH]n4)c3)cc2)c(C)c1O	1430	293 to 336	85	430	42	88	3.08	Dose-dependent effect	100	0.73
CCCc1c(OCc2ccc(Oc3ccc(C(=O)O)cn3)cc2)ccc(C(C)=O)c1O	132	1430	96	–	–	–	–	–	–	–
CCCc1c(OCc2cccc(Oc3cc(C(=O)O)ccn3)c2)ccc(C(C)=O)c1O	73.6	404	91	–	–	–	–	–	–	–
CCCc1c(OCc2cccc(Oc3ncccc3-c3nn[nH]n3)c2)ccc(C(C)=O)c1O	390	227	85	–	–	–	–	–	–	–
CC(=O)c1ccc(OCc2cccc(Oc3ccc(-c4nn[nH]n4)cn3)c2)c(Cl)c1O	475	39.3	90	–	–	–	–	–	–	–
CNS(=O)(=O)Cc1ccc2[nH]cc(CCN(C)C)c2c1 [SUMATRIPTAN]	–	–	–	–	–	–	–	–	1000	–
CCCc1c(OCc2ccc(Oc3ncccc3-c3nn[nH]n3)cc2)ccc(C(C)=O)c1O	330	310	87	–	–	–	–	–	–	–
CCCc1c(OCc2ccc(Oc3ccc(-c4nn[nH]n4)cn3)cc2)ccc(C(C)=O)c1O	346	682	94	–	–	–	–	–	–	–
CCCc1c(OCc2ccc(Oc3cccc(-c4nn[nH]n4)c3)nc2)ccc(C(C)=O)c1O	484	562	74	–	–	–	–	–	–	–
CCCc1c(OCc2ccc(Oc3cc(-c4nn[nH]n4)ccn3)cc2)ccc(C(C)=O)c1O	200	470	88 to 89	–	–	–	–	–	–	–
CCCc1c(OCc2cccc(Oc3ccc(-c4nn[nH]n4)cn3)c2)ccc(C(C)=O)c1O	203	319	80	–	–	–	–	–	–	–

Further lines, with some results ahead:

IC50 [1] [nM]	EC50 [2] [nM]	Emax [3] [%]	Cmax [5] [ng/mL]	Tmax [7] [min]	bioavailability [8] [%]	Structure (SMILES)	Ratio [4]	Activity (Rattus norvegicus)	ID100 (Rattus norvegicus) [µg/kg]	Ratio [6]
112	6 to 6.4	81	24.1	24	38	CC(=O)c1ccc(OCc2cccc(Oc3cc(-c4nn[nH]n4)ccn3)c2)c(C(F)(F)F)c1O	8.52	Dose-dependent effect	10	0.46
144	17.9	85	–	–	–	CC(=O)c1ccc(OCc2cccc(Oc3ccc(-c4nn[nH]n4)cn3)c2)c(C(F)(F)F)c1O	–	–	–	–
342	87.4	101	–	–	–	CC(=O)c1ccc(OCc2cccc(Oc3cc(-c4nn[nH]n4)ccn3)c2)c(Cl)c1O	–	–	–	–
1500	1080	91	–	–	–	CC(=O)c1ccc(OCc2cccc(Oc3ccc(-c4nn[nH]n4)cn3)c2)c(F)c1O	–	–	–	–
62.4	110	90 to 96	–	–	–	CCCc1c(OCc2cccc(Oc3cc(-c4nn[nH]n4)ccn3)c2)ccc(C(C)=O)c1O	–	–	–	–
